Experimental data published in patent US20210269434A1, “TRICYCLIC COMPOUNDS AS INHIBITORS OF KRAS” (Incyte Corporation, priority 2020, published 2021).

Legend:
[1] = target: KRAS G12C (Homo sapiens, UniProt P01116, G12C); test: GDP-GTP exchange assay (KRAS_G12C exchange); assay type: biochemical; conditions: bodipy-GDP loaded KRAS G12C 2.5 nM, SOS1 150 nM, GppNHp; 2 hours pre-incubation, 2 hours reaction; read-out: G12C_exchange
How it was run: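 Fluorescence exchange of bodipy-GDP for GppNHp, SOS1-driven, read at 485/520 nm; IC50 from four-parameter variable-slope fit. Both mutants used 2.5 nM final labelled protein and a 2 h compound pre-incubation. G12C reaction had 500 uM GppNHp and 150 nM SOS1 for 2 h; G12D ran 4 h.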

[2] = test system: MIA PaCa-2 (KRAS G12C) cells; test: Cellular pERK HTRF assay (KRAS_G12C pERK); assay type: cell-based, human; conditions: Homo sapiens, MIA PaCa-2, 4 hours incubation, read-out: G12C_pERK
How it was run: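 Phospho-ERK1/2 HTRF readout (665 and 620 nm) in lysed MIA PaCa-2 cells, antibodies incubated overnight at room temperature. Cells seeded the day before and treated with G12C compounds for 4 h at 37 °C; IC50 fitted to percent inhibition against log inhibitor concentration.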

Sequence of KRAS G12C (P01116 1-188 isoform P01116-2 G12C): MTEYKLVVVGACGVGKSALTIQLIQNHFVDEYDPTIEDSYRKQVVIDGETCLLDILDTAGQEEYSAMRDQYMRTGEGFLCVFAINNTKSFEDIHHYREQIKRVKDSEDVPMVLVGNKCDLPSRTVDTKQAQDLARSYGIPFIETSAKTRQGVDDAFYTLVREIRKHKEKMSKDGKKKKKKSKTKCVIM

Structure (SMILES) | IC50 [1] | IC50 [2]
C=CC(=O)N1CC[C@H](n2cnc3c(N4CC(N(C)C)C4)nc4c(F)c(-c5cccc6c5OCCC6)c(Cl)cc4c32)C[C@H]1CC#N [Example 65, 2-((2S,4S)-1-acryloyl-4-(8-chloro-7-(chroman-8-yl)-4-(3-(dimethylamino)-azetidin-1-yl)-6-fluoro-1H-imidazo[4,5-c]quinolin-1-yl)piperidin-2-yl)acetonitrile] | ≤ 100 nM | ≤ 100 nM
C=CC(=O)N1CC[C@H](n2cnc3c(N4CC(N(C)C)C4)nc4c(F)c(-c5c(OC)ccc6ccccc56)c(Cl)cc4c32)C[C@H]1CC#N [Example 66, 2-((2S,4S)-1-acryloyl-4-(8-chloro-4-(3-(dimethylamino)azetidin-1-yl)-6-fluoro-7-(2-methoxynaphthalen-1-yl)-1H-imidazo[4,5-c]quinolin-1-yl)piperidin-2-yl)acetonitrile] | ≤ 100 nM | ≤ 100 nM
C=CC(=O)N1CC[C@H](n2cnc3c(N4CC(N(C)C)C4)nc4c(F)c(-c5ccc(F)c6ccccc56)c(Cl)cc4c32)C[C@H]1CC#N [Example 67, 2-((2S,4S)-1-acryloyl-4-(8-chloro-4-(3-(dimethylamino)azetidin-1-yl)-6-fluoro-7-(4-fluoronaphthalen-1-yl)-1H-imidazo[4,5-c]quinolin-1-yl)piperidin-2-yl)acetonitrile] | ≤ 100 nM | ≤ 100 nM
C=CC(=O)N1CC[C@H](n2cnc3c(N4CC(N(C)C)C4)nc4c(F)c(-c5cccc6cccc(C)c56)c(Cl)cc4c32)C[C@H]1CC#N [Example 68, 2-((2S,4S)-1-acryloyl-4-(8-chloro-4-(3-(dimethylamino)azetidin-1-yl)-6-fluoro-7-(8-methylnaphthalen-1-yl)-1H-imidazo[4,5-c]quinolin-1-yl)piperidin-2-yl)acetonitrile] | ≤ 100 nM | ≤ 100 nM
C=CC(=O)N1CC[C@H](n2cnc3c(N4CC(N(C)C)C4)nc4c(F)c(-c5cccc6c5OCCO6)c(Cl)cc4c32)C[C@H]1CC#N [Example 69, 2-((2S,4S)-1-acryloyl-4-(8-chloro-7-(2,3-dihydrobenzo[b][1,4]dioxin-5-yl)-4-(3-(dimethylamino)azetidin-1-yl)-6-fluoro-1H-imidazo[4,5-c]quinolin-1-yl)piperidin-2-yl)acetonitrile] | ≤ 100 nM | ≤ 100 nM
CC#CC(=O)N1CC[C@H](n2cnc3c(N4CC(C)(N(C)C)C4)nc4c(F)c(-c5c(C)c(Cl)cc6[nH]ncc56)c(Cl)cc4c32)C[C@H]1CC#N [Example 81a, 2-((2S,4S)-1-(but-2-ynoyl)-4-(8-chloro-7-(6-chloro-5-methyl-1H-indazol-4-yl)-4-(3-(dimethyl-amino)-3-methylazetidin-1-yl)-6-fluoro-1H-imidazo[4,5-c]quinolin-1-yl)piperidin-2-yl)acetonitrile] | ≤ 100 nM | ≤ 100 nM
CC#CC(=O)N1CC[C@H](n2cnc3c(N4CC5(CCCN5C)C4)nc4c(F)c(-c5c(C)c(Cl)cc6[nH]ncc56)c(Cl)cc4c32)C[C@H]1CC#N [Example 83a, 2-((2S,4S)-1-(but-2-ynoyl)-4-(8-chloro-7-(6-chloro-5-methyl-1H-indazol-4-yl)-6-fluoro-4-(5-methyl-2,5-diazaspiro[3.4]octan-2-yl)-1H-imidazo[4,5-c]quinolin-1-yl)piperidin-2-yl)acetonitrile] | ≤ 100 nM | ≤ 100 nM
COC/C=C/C(=O)N1CC[C@H](n2cnc3c(N4CC5(CCCN5C)C4)nc4c(F)c(-c5c(C)c(Cl)cc6[nH]ncc56)c(Cl)cc4c32)C[C@H]1CC#N [Example 84a, 2-((2S,4S)-4-(8-chloro-7-(6-chloro-5-methyl-1H-indazol-4-yl)-6-fluoro-4-(5-methyl-2,5-diazaspiro[3.4]octan-2-yl)-1H-imidazo[4,5-c]quinolin-1-yl)-1-((E)-4-methoxybut-2-enoyl)piperidin-2-yl)acetonitrile] | ≤ 100 nM | ≤ 100 nM
C=CC(=O)N1CC[C@H](n2nnc3c(OC[C@@H]4CCCN4C)nc4c(F)c(-c5ccc(F)c(Cl)c5)c(Cl)cc4c32)C[C@H]1CC#N [Example 85, 2-((2S,4S)-1-acryloyl-4-(8-chloro-7-(3-chloro-4-fluorophenyl)-6-fluoro-4-(((S)-1-methylpyrrolidin-2-yl)methoxy)-1H-[1,2,3]triazolo[4,5-c]quinolin-1-yl)piperidin-2-yl)acetonitrile] | ≤ 100 nM | ≤ 100 nM
C=CC(=O)N1CC[C@H](n2cnc3c(N4CC(N(C)C)C4)nc4c(F)c(-c5cncc(Cl)c5C)c(Cl)cc4c32)C[C@H]1CC#N [Example 89, 2-((2S,4S)-1-acryloyl-4-(8-chloro-7-(5-chloro-4-methylpyridin-3-yl)-4-(3-(dimethylamino)azetidin-1-yl)-6-fluoro-1H-imidazo[4,5-c]quinolin-1-yl)piperidin-2-yl)acetonitrile] | ≤ 100 nM | ≤ 100 nM
C=CC(=O)N1CC[C@H](n2cnc3c(N4CC(N(C)C)C4)nc4c(F)c(-c5c(OC)ncc(Cl)c5C)c(Cl)cc4c32)C[C@H]1CC#N [Example 90, 2-((2S,4S)-1-acryloyl-4-(8-chloro-7-(5-chloro-2-methoxy-4-methylpyridin-3-yl)-4-(3-(dimethylamino)azetidin-1-yl)-6-fluoro-1H-imidazo[4,5-c]quinolin-1-yl)piperidin-2-yl)acetonitrile] | ≤ 100 nM | ≤ 100 nM

More lines, now with the values ahead:

IC50 [1] | IC50 [2] | Structure (SMILES)
≤ 100 nM | ≤ 100 nM | C=CC(=O)N1CC[C@H](n2nnc3c(OC[C@@H]4CCCN4C)nc4c(F)c(-c5cccc(Cl)c5C)c(Cl)cc4c32)C[C@H]1CC#N [Example 86, 2-((2S,4S)-1-acryloyl-4-(8-chloro-7-(3-chloro-2-methylphenyl)-6-fluoro-4-(((S)-1-methylpyrrolidin-2-yl)methoxy)-1H-[1,2,3]triazolo[4,5-c]quinolin-1-yl)piperidin-2-yl)acetonitrile]
≤ 100 nM | ≤ 100 nM | Cc1c(Cl)cccc1-c1c(Cl)cc2c(nc(OC[C@@H]3CCCN3C)c3nnn([C@H]4CCN(C(=O)/C=C/CN(C)C)[C@H](CC#N)C4)c32)c1F [Example 88, 2-((2S,4S)-4-(8-chloro-7-(3-chloro-2-methylphenyl)-6-fluoro-4-(((S)-1-methylpyrrolidin-2-yl)methoxy)-1H-[1,2,3]triazolo[4,5-c]quinolin-1-yl)-1-((E)-4-(dimethylamino)but-2-enoyl)piperidin-2-yl)acetonitrile]
≤ 100 nM | ≤ 100 nM | CC#CC(=O)N1CC[C@H](n2nnc3c(N4CCOCC4=O)nc4c(F)c(-c5cccc(Cl)c5C)c(Cl)cc4c32)C[C@H]1CC#N [Example 91, 2-((2S,4S)-1-(but-2-ynoyl)-4-(8-chloro-7-(3-chloro-2-methylphenyl)-6-fluoro-4-(3-oxomorpholino)-1H-[1,2,3]triazolo[4,5-c]quinolin-1-yl)piperidin-2-yl)acetonitrile]
≤ 100 nM | ≤ 100 nM | CC#CC(=O)N1CC[C@H](n2nnc3c(N4CCN(C)CC4=O)nc4c(F)c(-c5cccc(Cl)c5C)c(Cl)cc4c32)C[C@H]1CC#N [Example 92, 2-((2S,4S)-1-(but-2-ynoyl)-4-(8-chloro-7-(3-chloro-2-methylphenyl)-6-fluoro-4-(4-methyl-2-oxopiperazin-1-yl)-1H-[1,2,3]triazolo[4,5-c]quinolin-1-yl)piperidin-2-yl)acetonitrile]
≤ 100 nM | ≤ 100 nM | CC#CC(=O)N1CC[C@H](n2nnc3c(N4CCCCC4=O)nc4c(F)c(-c5cccc(Cl)c5C)c(Cl)cc4c32)C[C@H]1CC#N [Example 93, 2-((2S,4S)-1-(but-2-ynoyl)-4-(8-chloro-7-(3-chloro-2-methylphenyl)-6-fluoro-4-(2-oxopiperidin-1-yl)-1H-[1,2,3]triazolo[4,5-c]quinolin-1-yl)piperidin-2-yl)acetonitrile]
≤ 100 nM | ≤ 100 nM | CC#CC(=O)N1CC[C@H](n2nnc3c(O[C@@H](C)CN(C)C)nc4c(F)c(-c5cccc(Cl)c5C)c(Cl)cc4c32)C[C@H]1CC#N [Example 94, 2-((2S,4S)-1-(but-2-ynoyl)-4-(8-chloro-7-(3-chloro-2-methylphenyl)-4-(((S)-1-(dimethylamino)propan-2-yl)oxy)-6-fluoro-1H-[1,2,3]triazolo[4,5-c]quinolin-1-yl)piperidin-2-yl)acetonitrile]
≤ 100 nM | ≤ 100 nM | C=CC(=O)N1CC[C@H](n2nnc3c(OC[C@@H]4CCCN4C)nc4c(F)c(-c5cccc(C#N)c5C)c(Cl)cc4c32)C[C@H]1CC#N [Example 95, 3-(1-((2S,4S)-1-acryloyl-2-(cyanomethyl)piperidin-4-yl)-8-chloro-6-fluoro-4-(((S)-1-methylpyrrolidin-2-yl)methoxy)-1H-[1,2,3]triazolo[4,5-c]quinolin-7-yl)-2-methylbenzonitrile]
≤ 100 nM | ≤ 100 nM | CC#CC(=O)N1CC[C@H](n2nnc3c(OC[C@@H]4CCCN4C)nc4c(F)c(-c5cccc(C#N)c5C)c(Cl)cc4c32)C[C@H]1CC#N [Example 96, 3-(1-((2S,4S)-1-(but-2-ynoyl)-2-(cyanomethyl)piperidin-4-yl)-8-chloro-6-fluoro-4-(((S)-1-methylpyrrolidin-2-yl)methoxy)-1H-[1,2,3]triazolo[4,5-c]quinolin-7-yl)-2-methylbenzonitrile]
≤ 100 nM | ≤ 100 nM | Cc1c(C#N)cccc1-c1c(Cl)cc2c(nc(OC[C@@H]3CCCN3C)c3nnn([C@H]4CCN(C(=O)/C=C/CN(C)C)[C@H](CC#N)C4)c32)c1F [Example 97, 3-(8-chloro-1-((2S,4S)-2-(cyanomethyl)-1-((E)-4-(dimethylamino)but-2-enoyl)piperidin-4-yl)-6-fluoro-4-(((S)-1-methylpyrrolidin-2-yl)methoxy)-1H-[1,2,3]triazolo[4,5-c]quinolin-7-yl)-2-methylbenzonitrile]
